Measured values as given in patent US4731451A, “N-((2-oxo-3(2H)benzothiazolyl)methyl)-2-chloroacetanilides” (Monsanto Company, priority 1980, dated 1988).

Assays:
Test in all cases: Pre-emergent herbicidal activity (Table III)
Type in all cases: in vivo
Sorghum = system: Sorghum
Outline: (§1)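 Treated cover soil over seeded pans; sub-irrigated greenhouse culture; fixed-scale injury rating after ~2-3 weeks.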

Panicum = system: Panicum
Outline: as §1

Wheat = system: Wheat
Outline: as §1

Smartweed = system: Smartweed
Outline: as §1

Hemp Sesbania = system: Hemp Sesbania
Outline: as §1

Velvetleaf = system: Velvetleaf
Outline: as §1

Sugarbeet = system: Sugarbeet
Outline: as §1

Lambsquarters = system: Lambsquarters
Outline: as §1

Cocklebur = system: Cocklebur
Outline: as §1
Further: ranges in brackets are in %.

CC1=C(N(Cn2c(=O)sc3ccccc32)C(=O)CCl)C(C)CCC1 (stereo not shown) [Example 1, N-(2,6-dimethyl-1-cyclohexen-1-yl)-N-[(2-oxo-3(2H)-benzothiazolyl)methyl]-2-chloroacetamide]
Herbicidal rating (Sorghum; 0.0056 kg/ha): 0 (0-24) | Herbicidal rating (Sorghum; 0.0112 kg/ha): 1 (25-49) | Herbicidal rating (Sorghum; 0.056 kg/ha): 0 (0-24) | Herbicidal rating (Sorghum; 0.28 kg/ha): 0 (0-24) | Herbicidal rating (Sorghum; 1.12 kg/ha): 3 (75-100) | Herbicidal rating (Sorghum; 5.6 kg/ha): 1 (25-49) | Herbicidal rating (Panicum; 0.0056 kg/ha): 3 (75-100) | Herbicidal rating (Panicum; 0.0112 kg/ha): 3 (75-100) | Herbicidal rating (Panicum; 0.056 kg/ha): 3 (75-100) | Herbicidal rating (Panicum; 0.28 kg/ha): 3 (75-100) | Herbicidal rating (Panicum; 1.12 kg/ha): 3 (75-100) | Herbicidal rating (Panicum; 5.6 kg/ha): 2 (50-74) | Herbicidal rating (Wheat; 0.0056 kg/ha): 0 (0-24) | Herbicidal rating (Wheat; 0.0112 kg/ha): 0 (0-24) | Herbicidal rating (Wheat; 0.056 kg/ha): 0 (0-24) | Herbicidal rating (Wheat; 0.28 kg/ha): 0 (0-24) | Herbicidal rating (Wheat; 1.12 kg/ha): 1 (25-49) | Herbicidal rating (Wheat; 5.6 kg/ha): 0 (0-24) | Herbicidal rating (Smartweed; 0.0056 kg/ha): 1 (25-49) | Herbicidal rating (Smartweed; 0.0112 kg/ha): 1 (25-49) | Herbicidal rating (Smartweed; 0.056 kg/ha): 1 (25-49) | Herbicidal rating (Smartweed; 0.28 kg/ha): 1 (25-49) | Herbicidal rating (Smartweed; 1.12 kg/ha): 0 (0-24) | Herbicidal rating (Smartweed; 5.6 kg/ha): 0 (0-24) | Herbicidal rating (Hemp Sesbania; 0.0112 kg/ha): 1 (25-49) | Herbicidal rating (Hemp Sesbania; 0.056 kg/ha): 0 (0-24) | Herbicidal rating (Velvetleaf; 0.0056 kg/ha): 0 (0-24) | Herbicidal rating (Velvetleaf; 0.0112 kg/ha): 0 (0-24) | Herbicidal rating (Velvetleaf; 0.056 kg/ha): 0 (0-24) | Herbicidal rating (Velvetleaf; 0.28 kg/ha): 0 (0-24) | Herbicidal rating (Velvetleaf; 1.12 kg/ha): 0 (0-24) | Herbicidal rating (Velvetleaf; 5.6 kg/ha): 0 (0-24) | Herbicidal rating (Sugarbeet; 0.0056 kg/ha): 0 (0-24) | Herbicidal rating (Sugarbeet; 0.0112 kg/ha): 0 (0-24) | Herbicidal rating (Sugarbeet; 0.056 kg/ha): 1 (25-49) | Herbicidal rating (Sugarbeet; 0.28 kg/ha): 1 (25-49) | Herbicidal rating (Sugarbeet; 1.12 kg/ha): 1 (25-49) | Herbicidal rating (Sugarbeet; 5.6 kg/ha): 1 (25-49) | Herbicidal rating (Lambsquarters; 0.0056 kg/ha): 1 (25-49) | Herbicidal rating (Lambsquarters; 0.0112 kg/ha): 1 (25-49) | Herbicidal rating (Lambsquarters; 0.056 kg/ha): 1 (25-49) | Herbicidal rating (Lambsquarters; 0.28 kg/ha): 2 (50-74) | Herbicidal rating (Lambsquarters; 1.12 kg/ha): 2 (50-74) | Herbicidal rating (Lambsquarters; 5.6 kg/ha): 1 (25-49) | Herbicidal rating (Cocklebur; 0.0112 kg/ha): 0 (0-24) | Herbicidal rating (Cocklebur; 0.056 kg/ha): 0 (0-24)
